Assays:
HIV (CEM Cells) = assay: Cell Culture Anti-HIV Activity (formazan cell viability of HIV-infected CEM-SS cells); type: cell-based; settings: Human immunodeficiency virus 1, CCRF-CEM, 144 h; CEM-SS cells infected with RF strain of HIV, multiplicity of infection 0.04, 6 days at 37° C.; concentration raising formazan production to 50% of uninfected cells
Method: The antiviral activity of the retrocarbamate protease inhibitors of the present invention was evaluated by a microculture method which determines the increase in cell viability of an infected culture when a drug is added. The assay depends on the metabolic reduction of tetrazolium reagent by viable cells to yield a soluble colored formazan product. The assay was performed as follows: suspensions of CEM--SS cells (5000/well) were infected with the RF strain of HIV at a multiplicity of infection at 0.04 in a 96-well plate. The compounds of the present invention listed in the following Table 1, serially diluted in half-log fashion, were added to the infected and uninfected control cells. Untreated (infected and uninfected) cells were included as controls. Following incubation for 6 days at 37° C., viable cells in each well were quantitated by the visible light absorbance at 450 nm. The IC50 was calculated as the concentration of drug that increased the formazan production in virally infected cells to 50% of that produced by uninfected cells in the absence of drug.

HIV protease = target: T1, HIV protease (Human immunodeficiency virus type 1 group M subtype B, UniProt P04585); assay: HIV Protease Assay; type: biochemical; settings: 10 μM inhibitor, 4% DMSO, 450 μM substrate, pH 5.5, 30 minutes at 37° C.
T1 construct: purified protease
Method: An HIV protease standard assay was performed in a 60 μl reaction medium containing 50 mM sodium acetate, pH 5.5, 100 μg/ml bovine serum, 450 μM substrate (H2 N-Val-Ser-Gin-Asn-( β-naphthyl-alanine)-Pro-Val-Ile-OH), and purified protease. The reaction medium was incubated for 30 minutes at 37° C., quenched by the addition of 140 μl 5% H3 PO4, then analyzed by reverse phase HPLC using UV220 detection. In a typical control assay, 7% of the substrate was hydrolyzed. The retrocarbamate protease inhibitors of the present invention, listed in the following Table 1, were then employed in the assay, for which purpose they were prepared as a […] solution in DMSO then diluted to 30 μM with 50 mM sodium acetate/bovine serum albumen. This working stock was then diluted three-fold into the protease reaction medium, for a final concentration of 10 μM inhibitor and 4% DMSO.

With `CC(C)(C)NC(=O)O[C@@H](Cc1ccccc1)[C@H](O)CNC[C@@H](O)[C@H](Cc1ccccc1)NC(=O)OC(C)(C)C` [Example 1, [1S-[1R*,2S*(2S*,3R*)]]-[3-[[3-[[[(1,1-Dimethylethyl)amino]carbonyl]oxy]-2-hydroxy-4-phenylbutyl]amino]-2-hydroxy-1-(phenylmethyl)-propyl]carbamic acid, 1,1-dimethyl ester] the IC50 (HIV (CEM Cells)) was 460 nM and the inhibition at 10 µM (HIV protease) was 98%.

With `CC(C)(C)NC(=O)O[C@@H](Cc1ccccc1)[C@H](O)CNC[C@@H](O)[C@H](Cc1ccc(OCC(=O)N2CCOCC2)cc1)NC(=O)OC(C)(C)C` [Example 2, [1S-[1R*,2S* (2S*,3R*)]]-[3-[[3-[[[(1,1-Dimethylethyl)amino]carbonyl]oxy]-2-hydroxy-4-phenylbutyl]amino]-2-hydroxy-1-[[4-[2-(morpholinyl)-2-oxoethoxy]phenyl]methyl]propyl]carbamic acid, 1,1-dimethylethyl ester] the IC50 (HIV (CEM Cells)) was 200 nM and the inhibition at 10 µM (HIV protease) was 90%.

`CC(C)(C)NC(=O)O[C@@H](Cc1ccccc1)[C@H](O)CNC[C@@H](O)[C@H](Cc1ccccc1)NC(=O)[C@](C)(O)C(C)(C)C` [Example 3, [1S-[1R*, 2S*[2S*, 3R* (S*)]]]-(1,1-Dimethylethyl)carbamic acid, 3-[[3-[(2-hydroxy-2,3,3-trimethyl-1-oxobutyl)amino]-2-hydroxy-4-phenylbutyl]amino]-2-hydroxy-1-(phenylmethyl)propyl ester] showed an IC50 (HIV (CEM Cells)) of 100 nM and an inhibition at 10 µM (HIV protease) of 98%.

From patent US5492910A, “Retrocarbamate protease inhibitors” (Bristol-Myers Squibb Co., priority 1994, dated 1996)
